Laboratory results: PubChem BioAssay (NCI)
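Briefly, cells in 96-well plates were exposed to five compound concentrations for 48 h, and endpoints were estimated by linear interpolation. At the GI50, growth is halved. TGI: total growth inhibition.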

Experiments:
Experiment in all cases: DTP human tumour cell line panel, 48 h
[1] = test system: MDA-MB-231 breast
[2] = test system: LOX IMVI melanoma
[3] = test system: NCI-H23 lung
[4] = test system: OVCAR-4 ovarian
[5] = test system: SK-MEL-28 melanoma
[6] = test system: COLO 205 colon
[7] = test system: UO-31 renal
[8] = test system: UACC-62 melanoma
[9] = test system: SK-MEL-2 melanoma
[10] = test system: RPMI-8226 leukemia
[11] = test system: HOP-92 NSCLC
[12] = test system: NCI-H226 lung
[13] = test system: HS 578T breast
[14] = test system: U251 CNS
[15] = test system: RXF 393 renal
[16] = test system: SN12C renal
[17] = test system: UACC-257 melanoma
[18] = test system: EKVX NSCLC
[19] = test system: K-562 leukemia
[20] = test system: SNB-19 CNS
[21] = test system: HL-60(TB) leukemia
[22] = test system: ACHN renal
[23] = test system: SNB-75 CNS
[24] = test system: DU-145 prostate
[25] = test system: MOLT-4 leukemia
[26] = test system: HT29 colon
[27] = test system: IGROV1 ovarian
[28] = test system: PC-3 prostate
[29] = test system: CCRF-CEM leukemia
[30] = test system: MCF7 breast
[31] = test system: NCI-H460 lung
[32] = test system: NCI/ADR-RES ovarian
[33] = test system: CAKI-1 renal
[34] = test system: KM12 colon
[35] = test system: 786-0 renal
[36] = test system: HOP-62 NSCLC
[37] = test system: SK-MEL-5 melanoma
[38] = test system: SF-539 CNS
[39] = test system: MDA-MB-435
[40] = test system: SW-620 colon
[41] = test system: HCT-15 colon
[42] = test system: A549 NSCLC
[43] = test system: T-47D breast
[44] = test system: TK-10 renal
[45] = test system: MALME-3M melanoma
[46] = test system: SF-295 CNS
[47] = test system: NCI-H522 lung
[48] = test system: OVCAR-8 ovarian
[49] = test system: SK-OV-3 ovarian
[50] = test system: SF-268 CNS
[51] = test system: HCC-2998 colon
[52] = test system: OVCAR-3 ovarian
[53] = test system: OVCAR-5 ovarian
[54] = test system: HCT-116 colon
[55] = test system: BT-549 breast

Cc1ccc(Cl)cc1-n1c(C)nc2c(cnn2-c2ccnc3c(C(F)(F)F)cccc23)c1=O
GI50 [1]: > 100 µM | TGI [1]: > 100 µM | GI50 [2]: > 100 µM | TGI [2]: > 100 µM | GI50 [3]: > 100 µM | TGI [3]: > 100 µM | GI50 [4]: > 100 µM | TGI [4]: > 100 µM | GI50 [5]: > 100 µM | TGI [5]: > 100 µM | GI50 [6]: > 100 µM | TGI [6]: > 100 µM | GI50 [7]: > 100 µM | TGI [7]: > 100 µM | GI50 [8]: > 100 µM | TGI [8]: > 100 µM | GI50 [9]: > 100 µM | TGI [9]: > 100 µM | GI50 [10]: > 100 µM | TGI [10]: > 100 µM | GI50 [11]: > 100 µM | TGI [11]: > 100 µM | GI50 [12]: > 100 µM | TGI [12]: > 100 µM | GI50 [13]: > 100 µM | TGI [13]: > 100 µM | GI50 [14]: > 100 µM | TGI [14]: > 100 µM | GI50 [15]: > 100 µM | TGI [15]: > 100 µM | GI50 [16]: > 100 µM | TGI [16]: > 100 µM | GI50 [17]: > 100 µM | TGI [17]: > 100 µM | GI50 [18]: > 100 µM | TGI [18]: > 100 µM | GI50 [19]: > 100 µM | TGI [19]: > 100 µM | GI50 [20]: > 100 µM | TGI [20]: > 100 µM | GI50 [21]: > 100 µM | TGI [21]: > 100 µM | GI50 [22]: > 100 µM | TGI [22]: > 100 µM | GI50 [23]: > 100 µM | TGI [23]: > 100 µM | GI50 [24]: > 100 µM | TGI [24]: > 100 µM | GI50 [25]: > 100 µM | TGI [25]: > 100 µM | GI50 [26]: > 100 µM | TGI [26]: > 100 µM | GI50 [27]: > 100 µM | TGI [27]: > 100 µM | GI50 [28]: > 100 µM | TGI [28]: > 100 µM | GI50 [29]: > 100 µM | TGI [29]: > 100 µM | GI50 [30]: > 100 µM | TGI [30]: > 100 µM | GI50 [31]: > 100 µM | TGI [31]: > 100 µM | GI50 [32]: > 100 µM | TGI [32]: > 100 µM | GI50 [33]: > 100 µM | TGI [33]: > 100 µM | GI50 [34]: > 100 µM | TGI [34]: > 100 µM | GI50 [35]: > 100 µM | TGI [35]: > 100 µM | GI50 [36]: > 100 µM | TGI [36]: > 100 µM | GI50 [37]: > 100 µM | TGI [37]: > 100 µM | GI50 [38]: > 100 µM | TGI [38]: > 100 µM | GI50 [39]: > 100 µM | TGI [39]: > 100 µM | GI50 [40]: > 100 µM | TGI [40]: > 100 µM | GI50 [41]: > 100 µM | TGI [41]: > 100 µM | GI50 [42]: > 100 µM | TGI [42]: > 100 µM | GI50 [43]: > 100 µM | TGI [43]: > 100 µM | GI50 [44]: > 100 µM | TGI [44]: > 100 µM | GI50 [45]: > 100 µM | TGI [45]: > 100 µM | GI50 [46]: > 100 µM | TGI [46]: > 100 µM | GI50 [47]: > 100 µM | TGI [47]: > 100 µM | GI50 [48]: > 100 µM | TGI [48]: > 100 µM | GI50 [49]: > 100 µM | TGI [49]: > 100 µM | GI50 [50]: > 100 µM | TGI [50]: > 100 µM | GI50 [51]: > 100 µM | TGI [51]: > 100 µM | GI50 [52]: > 100 µM | TGI [52]: > 100 µM | GI50 [53]: > 100 µM | TGI [53]: > 100 µM | GI50 [54]: > 100 µM | TGI [54]: > 100 µM | GI50 [55]: > 100 µM | TGI [55]: > 100 µM
